Results taken from the NIST ThermoML archive (doi:10.1016/j.jct.2004.07.015).

Tests used:
[1] = 101.33 kPa, Liquid
[2] = xn = mol fraction of the nth substance listed; details: 101.3 kPa, Liquid

C1COCO1 [1,3-dioxolane]
[1]
Details | mass density [kg/m3] | speed of sound [m/s]
298.15 K | 1058.98 | 1340.2
313.15 K | 1040 | 1270.9

C1COCO1 [1,3-dioxolane] + CC(C)(C)O
[2]
Details | mass density, 298.15 K [kg/m3] | mass density, 313.15 K [kg/m3] | speed of sound, 298.15 K [m/s] | speed of sound, 313.15 K [m/s]
x1 = 0.0495 | 789.79 | – | 1129.2 | –
x1 = 0.0567 | – | 775.49 | – | 1065.2
x1 = 0.0949 | – | 782.77 | – | 1071.1
x1 = 0.0965 | 798.83 | – | 1135.6 | –
x1 = 0.1973 | – | 803.78 | – | 1087.4
x1 = 0.1996 | 820.33 | – | 1151 | –
x1 = 0.2909 | 840.96 | – | 1165.8 | –
x1 = 0.2919 | – | 824.8 | – | 1103.5
x1 = 0.4039 | – | 851.81 | – | 1123.4
x1 = 0.4049 | 868.7 | – | 1186.2 | –
x1 = 0.4951 | – | 875.4 | – | 1141.2
x1 = 0.4972 | 892.83 | – | 1204.9 | –
x1 = 0.5948 | – | 903.12 | – | 1162.4
x1 = 0.5974 | 920.82 | – | 1226.8 | –
x1 = 0.6997 | – | 934.45 | – | 1187.1
x1 = 0.7033 | 952.73 | – | 1252.5 | –
x1 = 0.8031 | – | 967.86 | – | 1213.5
x1 = 0.8033 | 985.46 | – | 1279.3 | –
x1 = 0.8944 | 1017.75 | – | 1305.9 | –
x1 = 0.8959 | – | 1000.17 | – | 1239.6
x1 = 0.9439 | 1036.49 | – | 1321.3 | –
x1 = 0.9464 | – | 1018.99 | – | 1254.3

C1COCO1 [1,3-dioxolane] + CC(C)CO
[2]
Details | mass density, 298.15 K [kg/m3] | mass density, 313.15 K [kg/m3] | speed of sound, 298.15 K [m/s] | speed of sound, 313.15 K [m/s]
x1 = 0.0434 | – | 793.86 | – | 1140.5
x1 = 0.0675 | 810.83 | – | 1193.2 | –
x1 = 0.0922 | – | 802.94 | – | 1143.6
x1 = 0.0932 | 815.89 | – | 1195.3 | –
x1 = 0.1938 | – | 822.73 | – | 1151.2
x1 = 0.2005 | 837.99 | – | 1205.1 | –
x1 = 0.2946 | 858.48 | 843.76 | 1214.8 | 1159.9
x1 = 0.395 | 881.68 | – | 1226.7 | –
x1 = 0.3984 | – | 866.86 | – | 1170.5
x1 = 0.5044 | – | 892.29 | – | 1182.9
x1 = 0.5062 | 908.95 | – | 1241.8 | –
x1 = 0.6042 | – | 917.95 | – | 1196.4
x1 = 0.6065 | 935.18 | – | 1258.1 | –
x1 = 0.6962 | – | 943.18 | – | 1211.4
x1 = 0.6977 | 960.69 | – | 1274.3 | –
x1 = 0.7995 | 991.23 | – | 1295.4 | –
x1 = 0.8009 | – | 974.09 | – | 1230.6
x1 = 0.8928 | – | 1003.34 | – | 1249.5
x1 = 0.8957 | 1022.45 | – | 1316.5 | –
x1 = 0.9439 | – | 1020.41 | – | 1260.2
x1 = 0.9451 | 1039.33 | – | 1327.6 | –

C1COCCO1 [1,4-dioxane]
[1]
Details | mass density [kg/m3] | speed of sound [m/s]
298.15 K | 1027.96 | 1344.8
313.15 K | 1010.8 | 1279.8

C1COCCO1 [1,4-dioxane] + CC(C)(C)O
[2]
Details | mass density, 298.15 K [kg/m3] | mass density, 313.15 K [kg/m3] | speed of sound, 298.15 K [m/s] | speed of sound, 313.15 K [m/s]
x1 = 0.0502 | 791.11 | – | 1133.5 | –
x1 = 0.0525 | – | 776.05 | – | 1069.8
x1 = 0.0802 | 797.29 | – | 1139.5 | –
x1 = 0.0886 | – | 783.75 | – | 1078.1
x1 = 0.2051 | – | 808.89 | – | 1102.3
x1 = 0.2164 | 826.41 | – | 1166.2 | –
x1 = 0.287 | – | 827.2 | – | 1118.9
x1 = 0.2915 | 843.19 | – | 1180.4 | –
x1 = 0.3926 | – | 851.46 | – | 1139.9
x1 = 0.3944 | 867.16 | – | 1201.4 | –
x1 = 0.4938 | – | 875.49 | – | 1160.8
x1 = 0.496 | 891.65 | – | 1222.4 | –
x1 = 0.592 | – | 899.61 | – | 1181.6
x1 = 0.5929 | 915.92 | – | 1243.8 | –
x1 = 0.6814 | 938.8 | – | 1264.1 | –
x1 = 0.6904 | – | 924.78 | – | 1202.7
x1 = 0.7994 | – | 953.91 | – | 1227.9
x1 = 0.8029 | 971.23 | – | 1293.2 | –
x1 = 0.8871 | – | 978.21 | – | 1250.3
x1 = 0.8893 | 995.28 | – | 1315.3 | –
x1 = 0.9287 | 1006.7 | – | 1325.5 | –
x1 = 0.9421 | – | 993.91 | – | 1264.2

CC(C)CO [2-methyl-1-propanol]
[1]
Details | mass density [kg/m3] | speed of sound [m/s]
298.15 K | 797.83 | 1188.5
313.15 K | 785.96 | 1138.4

CC(C)CO [2-methyl-1-propanol] + C1COCCO1
[2]
Details | mass density, 298.15 K [kg/m3] | mass density, 313.15 K [kg/m3] | speed of sound, 298.15 K [m/s] | speed of sound, 313.15 K [m/s]
x2 = 0.0559 | 809.27 | – | 1196.2 | –
x2 = 0.0612 | – | 798.12 | – | 1146
x2 = 0.0898 | – | 803.92 | – | 1149.5
x2 = 0.0943 | 817.3 | – | 1201.4 | –
x2 = 0.1946 | – | 825.35 | – | 1162.3
x2 = 0.1959 | 838.82 | – | 1215.5 | –
x2 = 0.2981 | 860.89 | – | 1229.7 | –
x2 = 0.3039 | – | 848.25 | – | 1176.2
x2 = 0.4033 | – | 869.73 | – | 1189.2
x2 = 0.4039 | 884.22 | – | 1245.1 | –
x2 = 0.5062 | 907.2 | – | 1260.6 | –
x2 = 0.5086 | – | 892.99 | – | 1203.6
x2 = 0.5674 | – | 906.3 | – | 1211.8
x2 = 0.603 | 929.49 | – | 1276.1 | –
x2 = 0.7018 | – | 937.3 | – | 1232
x2 = 0.7021 | 952.9 | – | 1292.4 | –
x2 = 0.7966 | 976 | – | 1308.7 | –
x2 = 0.8296 | – | 967.84 | – | 1251.9
x2 = 0.8879 | – | 982.25 | – | 1261
x2 = 0.8943 | 1000.57 | – | 1326 | –
x2 = 0.9298 | – | 992.74 | – | 1267.7
x2 = 0.9328 | 1010.53 | – | 1333 | –

CC(C)(C)O [2-methylpropan-2-ol]
[1]
Details | mass density [kg/m3] | speed of sound [m/s]
298.15 K | 780.86 | 1122.8
313.15 K | 765.16 | 1057.4
